The text below walks through data of ChEMBL document CHEMBL1201862, “PubChem BioAssay data set” (2004).

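Protocol summary: plate cells (96-well), add compound at 5 concentrations, incubate 48 h, interpolate endpoints linearly. GI50 marks 50% less growth.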 Activity calls are given as the source filed them. No stated cut-off is given here; in the data, active = GI50 up to about 1.1 µM and inactive = higher.

What all share (assay): inhibition of tumour cell growth, NCI panel, 48 h
In assay [1] the test system is U-251.
Assay [2] has as its system RPMI-8226.
For assay [3], the system named is 786-0.
Assay [4] has as its system HL-60.
Assay [5] concerns OVCAR-5.
Assay [6] deals with T47D.
In assay [7] the test system is Malme-3M.
In assay [8] the test system is HCC 2998.
In assay [9] the test system is M14.
The subject of assay [10] is NCI-H23.
Assay [11] concerns DU-145.
Assay [12] concerns LOX IMVI.
Assay [13] deals with UACC-62.
Assay [14] has as its system MOLT-4.
Assay [15] concerns MDA-MB-435.
In assay [16] the test system is SF-295.
Assay [17] deals with UO-31.
Assay [18] has as its system IGROV-1.
The subject of assay [19] is NCI/ADR-RES.

On to `CC(=O)c1cnc2oc3ccc(O)cc3c2c1-c1ccccc1`, for which the GI50 in [1] was 52.4 µM (inactive); in [2] it was 18.8 µM (inactive); in [3] it was 39.4 µM (inactive); in assay [4] it was 37.5 µM (inactive); in [5], 71.6 µM (inactive); in assay [6] it was 10.8 µM (inactive). The GI50 in assay [7] was 15.5 µM (inactive); in assay [8] it was 38 µM (inactive); in assay [9], > 100 µM (inactive); in assay [10] it was 46.1 µM (inactive); in assay [11], 32.1 µM (inactive); in assay [12], 99.1 µM (inactive). Also, the GI50 was 20.5 µM (inactive) in assay [13], 19.2 µM (inactive) in assay [14], 64.9 µM (inactive) in assay [15] and 30 µM (inactive) in assay [16].
Turning to `CSC1=NS(=O)(=O)c2cc(C(=O)NN(C)C(=O)c3cc4c(cc3Cl)SC(SC)=NS4(=O)=O)c(Cl)cc2S1`, the GI50 in assay [1], in assay [2], in assay [3], in assay [17], in [4] and in assay [5] was > 10 µM (inactive) throughout. In addition, the GI50 in [6], in assay [7], in assay [8], in assay [18], in assay [9] and in assay [10] was > 10 µM (inactive) in each case. Moreover, the GI50 in assay [19], in assay [11], in assay [12], in assay [14] and in assay [16] was > 10 µM (inactive) in each case.
Consider `C=CCN1C(=O)CC(=O)N(NC2=NNC3(C(=O)N2)c2ccccc2-c2ccccc23)C1=S`, for which the GI50 in assay [1] is 38 µM (inactive); in [3] it was 38.5 µM (inactive); in assay [17], 31.8 µM (inactive); in assay [4], 27.9 µM (inactive); in assay [5], 53.7 µM (inactive); in assay [7] it was 38 µM (inactive). The GI50 was 38.6 µM (inactive) in assay [8]; 38.9 µM (inactive) in assay [18]; > 100 µM (inactive) in assay [9]; 29.2 µM (inactive) in [10]; 25.4 µM (inactive) in [19]; 44.5 µM (inactive) in [11]. In addition, the GI50 in assay [12] was 42.7 µM (inactive); in assay [13], 28.5 µM (inactive); in [15], 44.5 µM (inactive); in [16], 37 µM (inactive).
As to `CCOc1ccc(C(=O)/C=C2/Nc3ccccc3N/C2=C/C(=O)c2ccc(OCC)cc2)cc1`, the GI50 in [1] is > 100 µM (inactive); in assay [2], > 100 µM (inactive); in [3], 80 µM (inactive); in assay [17], > 100 µM (inactive); in assay [4] it was > 100 µM (inactive); in assay [5] it was > 100 µM (inactive). Further, the GI50 in [6] was > 100 µM (inactive); in [7] it was 41.7 µM (inactive); in assay [8], > 100 µM (inactive); in assay [18], 57.9 µM (inactive); in assay [9] it was > 100 µM (inactive); in [10] it was > 100 µM (inactive). For the same molecule, the GI50 in assay [11] is > 100 µM (inactive); in [12], > 100 µM (inactive); in [13], > 100 µM (inactive); in assay [14], 81.3 µM (inactive); in [15], > 100 µM (inactive); in [16] it was > 100 µM (inactive).
With `O=C1CCCc2cc3c(cc21)CC1(Cc2ccccc2C1)C3`, the GI50 was 5.38 µM (inactive) in [1]; 4.35 µM (inactive) in [2]; 6.28 µM (inactive) in assay [3]; 1.46 µM (inactive) in assay [17]; 1.84 µM (inactive) in [4]; 7.66 µM (inactive) in [5]. For the same molecule, the GI50 in assay [6] was 5.24 µM (inactive); in assay [7], 9.79 µM (inactive); in [8] it was 16.1 µM (inactive); in [18], 7.43 µM (inactive); in assay [9], 4.33 µM (inactive); in [10] it was 6.78 µM (inactive). The GI50 in assay [19] was 6 µM (inactive); in assay [12] it was 6.53 µM (inactive); in assay [13], 8.91 µM (inactive); in assay [14], 3.52 µM (inactive); in assay [15], 1.91 µM (inactive); in assay [16] it was 4.03 µM (inactive).
For `Nc1nc(N)c(C2=CCNCC2)c(=O)[nH]1`, the GI50 in assay [1], in assay [2], in assay [3], in assay [17], in assay [4] and in assay [5] was > 100 µM (inactive) in each case. Besides, the GI50 in [6], in assay [7], in assay [18], in [9], in assay [10] and in assay [19] was > 100 µM (inactive) throughout. The GI50 in assay [11], in assay [13], in assay [14], in assay [15] and in [16] was > 100 µM (inactive) in each case.
On to `CCOC(=O)c1c(N)n(-c2ccccc2)c(=S)n(-c2ccccc2)c1=O`, for which the GI50 in [1], in assay [2], in assay [3], in assay [17], in [4] and in assay [5] was > 100 µM (inactive) throughout. Further, the GI50 in [6], in assay [7], in assay [8], in [18], in [9] and in assay [10] was > 100 µM (inactive) throughout. Moreover, the GI50 in [11], in assay [12], in [13], in assay [14], in assay [15] and in assay [16] was > 100 µM (inactive) throughout.
In the case of `COC(=O)c1ccc2c(c1)CC1(C2)Cc2ccc3c(c2C1)CCC3` (stereo not given), the GI50 was 28.7 µM (inactive) in assay [1]; 21.3 µM (inactive) in assay [2]; 23.2 µM (inactive) in assay [3]; 14.8 µM (inactive) in assay [4]; > 100 µM (inactive) in assay [5]; 14.3 µM (inactive) in assay [6]. Moreover, the GI50 is 17.4 µM (inactive) in assay [7]; 43 µM (inactive) in [8]; 42.8 µM (inactive) in [18]; 0.574 µM (active) in assay [9]; 57.3 µM (inactive) in assay [10]; 53.6 µM (inactive) in [11]. In addition, the GI50 in assay [12] was 20.8 µM (inactive); in assay [13] it was 14.6 µM (inactive); in assay [14], 15 µM (inactive); in assay [15] it was 3.25 µM (inactive); in assay [16], 24.9 µM (inactive).
In the case of `NCCCCC(NC(=O)C(N)Cc1ccc(O)cn1)C(=O)O` (stereo not given), the GI50 in assay [1], in [2], in [3], in assay [17], in assay [4] and in assay [5] was > 100 µM (inactive) throughout. For the same molecule, the GI50 in [7], in assay [8], in [18], in assay [10], in [19] and in assay [11] was > 100 µM (inactive) each time. The GI50 in assay [12], in assay [14], in [15] and in [16] was > 100 µM (inactive) throughout.
Turning to `COC1OC2COC(=O)c3cc(O)c(O)c(O)c3-c3c(cc(O)c(O)c3O)C(=O)OC2C(O)C1O` (stereo not given), the GI50 was 61.2 µM (inactive) in [1]; 55.7 µM (inactive) in assay [2]; 47.4 µM (inactive) in assay [3]; > 100 µM (inactive) in assay [17]; > 10 µM (inactive) in assay [4]; 53.8 µM (inactive) in assay [5]. Further, the GI50 was > 100 µM (inactive) in assay [7]; > 100 µM (inactive) in [18]; 43.9 µM (inactive) in assay [9]; > 100 µM (inactive) in assay [10]; > 100 µM (inactive) in [19]; > 100 µM (inactive) in assay [11]. Moreover, the GI50 was 23.2 µM (inactive) in assay [12]; 21.4 µM (inactive) in assay [13]; 28.6 µM (inactive) in assay [14]; 30.5 µM (inactive) in assay [15]; 18.9 µM (inactive) in assay [16].
With `CC(=O)Nc1cc(Nc2cc(O)nc(O)n2)ccc1C`, the GI50 in assay [1], in assay [2], in assay [3], in assay [17], in [4] and in assay [5] was > 100 µM (inactive) each time. In addition, the GI50 in assay [7], in [8], in assay [18], in [9], in assay [19] and in assay [11] was > 100 µM (inactive) throughout. The GI50 in assay [12], in assay [15] and in assay [16] was > 100 µM (inactive) in each case.
Regarding `O=C1Nc2ccc(Br)cc2/C1=N/NC(=S)Nc1ccc(F)cc1`, the GI50 is 3.53 µM (inactive) in assay [1]; 7.67 µM (inactive) in assay [3]; 1.6 µM (inactive) in assay [4]; 43.2 µM (inactive) in [5]; 4.9 µM (inactive) in assay [6]; 4.95 µM (inactive) in assay [7]. The GI50 is 0.948 µM (active) in [18]; 0.794 µM (active) in assay [10]; 1.48 µM (inactive) in assay [19]; 4.3 µM (inactive) in [11]; 4.7 µM (inactive) in assay [12]; 2.56 µM (inactive) in [13]. The GI50 in assay [14] is 2.58 µM (inactive); in assay [15] it was 2.4 µM (inactive); in assay [16], 3.69 µM (inactive).
